“Also recorded” adds a separate entry of the source. *1 amine or outer side, *2 acyl side, *3 side chain or, on linkers, in order; H or OH if unused. Where a SMILES comes first, the peptide text is derived from it. Bridges are numbered along the chain shown (N, C = ends). [ ]: non-standard residue; d: D form. ξ: configuration not given here. Phe(4-NO2) = N[C@@H](Cc1ccc([N+](=O)[O-])cc1)C(=O)O; Phe(4-Cl) = N[C@@H](Cc1ccc(Cl)cc1)C(=O)O; NHCH2CMe2S = CC(C)(CN[*:1])S[*:2]; NMeR = CN[C@@H](CCCNC(=N)N)C(=O)O; X1 = CC(C)(CN[*:2])S[*:1]; ξC = NC(CS)C(=O)O; Sar = CNCC(=O)O Bounds are passed on as bounds.

This is an account of results in patent US20220089646A1 (THE UNIVERSITY OF QUEENSLAND, priority 2019, published 2022).

For one series, the target named is KOP (Homo sapiens, UniProt P41145). Briefly: In vitro cAMP activity at KOP (Table 10). The series is classed as cell-based. The conditions noted are these: cAMP inhibition, four-parameter regression, normalised to U50488H. The method, then:
(§1) The CP series compounds were assayed as follows: The assay was performed using a 96 well ½ area plate. The different cAMP standard solutions (3 μL/well) were plated in duplicate. The different concentrations of drug (3 μL/well), and control solutions (3 μL/well) were plated in triplicate. Following this, the acceptor bead mixture (3 μL/well) was added to the respective sets—either cAMP standard curve or the treatment. This was covered and incubated on the orbital shaker for 60 minutes at 37° C. Then, the donor bead mixture (10 μL/well) was added to each well. This was incubated at room temperature overnight on the orbital shaker.
(§2) For DP-11-06 the assay was carried out in the same way as for the CP compounds except it was incubated for 30 mins at 37° C.
(§3) For the CP series compounds and DP-11-06, the Ensight® Multimode Plate Reader was used to quantify the fluorescence units of each plate. Before reading, each plate was centrifuged at 280 g for 30 seconds. Using GraphPad Prism7® Software, cAMP concentrations were determined by fit spline/LOWESS analysis. The cAMP standard curve was used for interpolation at this point. The cAMP concentrations were then normalized to the highest cAMP concentration recorded and analyzed by one-way ANOVA for multiple comparisons. The IC50 for each compound was then calculated using GraphPad Prism7® with non-linear regression analysis using four parameter curve fitting.
(§4) The results shown in Table 10 utilized rat plasma. • Note that DP-7-11 and CP5 represent the same compound, and DP-7-12 and CP6 are the same compound. In this regard, a different regression analysis method was adopted on the above cAMP experiments. Particularly, a new non-linear regression (four-parameter) was adopted to better account for hill slope, thereby improving the regression fit.

Another series has as its target MOP (Homo sapiens, UniProt P35372). Briefly: In vitro cAMP activity at MOP (Table 10). The series is classed as cell-based. The conditions noted are these: cAMP inhibition, four-parameter regression. The protocol: as §1, §2, §3
(§5) In this regard, a different regression analysis method was adopted on the above cAMP experiments. Particularly, a new non-linear regression (four-parameter) was adopted to better account for hill slope, thereby improving the regression fit.

A further series deals with DOP (Homo sapiens, UniProt P41143). Briefly: In vitro cAMP activity at DOP (Table 10). The following applies: cAMP inhibition, four-parameter regression. It is filed as cell-based. The method, then:
as §1, §2, §3, §5

Series [1] is described as follows: Plasma stability assay (Table 10). The series is classed as in vitro ADME. The following applies: 37° C., 100 uM peptide, One Phase Decay, read-out: Stability (t1/2, mins) Plasma; for half-life: rat plasma; for half-life at 100 uM: both sexes, Wistar, rat plasma (EDTA).
From the text: (§6) FIG. 20 is a series of graphs showing the stability of selected peptides in a trypsin (left-hand graphs) and plasma (right-hand graphs) stability assay (data normalised to concentration of each peptide at t=0, determined by LCMS, within each substrate; data analysed using One Phase Decay nonlinear regression in Prism software and each experiment performed in triplicate; mean+/−SEM);
as §4
(§7) Plasma was collected in house from adult mixed-gender Wistar rats, prepared using 2% EDTA as per standard practice. Peptides were added to rat plasma samples at 37° C. (in a water bath) with final concentrations of 100 uM (1:9 peptide in water:plasma) and a 50 μL sample was immediately taken and precipitated in 150 μL cold acetonitrile (9:1 ACN:water). This sample became the baseline, or t=0 min sample. Plasma with peptide was immediately returned to the water bath and subsequent 50 μL samples were taken at 5, 10, 15, 30, 60 and 120 min. At each time point, the 50 μL of plasma collected was immediately added to cold ACN. Each collected plasma sample in ACN was directly vortexed for 30 seconds and then centrifuged at room temperature (13K rpm, 5 min). 150 μL of the supernatant was taken and directly placed in glass HPLC vials for LCMS analysis.

Series [2] deals with T1, bovine pancreatic trypsin (Bos taurus, UniProt P00760).
T1 construct: from tissue; host or cells: bovine pancreas
T1 sequence (P00760 24-246): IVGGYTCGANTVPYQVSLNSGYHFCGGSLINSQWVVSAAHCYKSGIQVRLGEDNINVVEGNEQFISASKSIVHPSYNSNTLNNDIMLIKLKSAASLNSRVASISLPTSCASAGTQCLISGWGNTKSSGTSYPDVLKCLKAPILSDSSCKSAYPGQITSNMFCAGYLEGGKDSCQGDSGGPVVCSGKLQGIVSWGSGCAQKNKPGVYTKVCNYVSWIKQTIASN
The experiment in a line: Trypsin stability assay (Table 10). The series is classed as in vitro ADME. The conditions noted are these: for half-life / half-life at 100 uM: bovine pancreatic trypsin 2.5 μg/mL, 37° C., One Phase Decay, read-out: Stability (t1/2, mins) Trypsin; for half-life at 100 uM: bovine pancreatic trypsin solution; for Degradation in trypsin: over the 120 minute assay.
From the text: as §6
as §7, with “Plasma with peptide was immediately returned to the water bath and subsequent 50 μL samples were taken at 5, 10, 15, 30, 60 and 120 min.” left out
The protocol for the trypsin stability assay was very similar to the plasma stability assay discussed above. The only difference was the use of a trypsin solution (bovine pancreatic trypsin 2.5 μg/mL in NH4HCO3 buffer, pH approx. 8-8.5, 37° C.) instead of rat plasma. Volumes, times and preparation protocols were exactly as mentioned above.

Another series in a line: Stability in cAMP buffer. The series is classed as physicochemical. The following applies: over 60 minutes. An excerpt: Select compounds were also screened for stability in cAMP buffer, to assess whether they degrade spontaneously in the cell assay environment, in the absence of cellular metabolic processes.
The next series relates to trypsin. Briefly: stock trypsin solution (1 mg trypsin in 50 mL of 0.1 M NH4HCO3 buffer). The conditions noted are these: 37° C., up to 24 hours.
The subject of series [3] is bovine pancreatic trypsin. Briefly: bovine pancreatic trypsin 2.5 μg/mL in NH4HCO3 buffer, pH approx. 8-8.5. The following applies: 37° C., up to 120 min.

Sequence of MOP (P35372 whole entry): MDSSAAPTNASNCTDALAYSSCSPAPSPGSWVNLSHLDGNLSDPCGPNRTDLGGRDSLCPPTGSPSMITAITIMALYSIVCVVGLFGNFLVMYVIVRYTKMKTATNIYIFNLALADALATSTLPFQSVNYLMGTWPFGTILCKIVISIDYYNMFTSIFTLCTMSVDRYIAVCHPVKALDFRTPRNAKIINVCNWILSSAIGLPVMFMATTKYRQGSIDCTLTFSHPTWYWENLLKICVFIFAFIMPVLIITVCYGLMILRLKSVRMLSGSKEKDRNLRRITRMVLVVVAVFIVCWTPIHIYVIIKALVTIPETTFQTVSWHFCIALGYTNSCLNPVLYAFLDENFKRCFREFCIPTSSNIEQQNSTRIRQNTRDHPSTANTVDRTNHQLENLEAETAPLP
Sequence of KOP (P41145 whole entry): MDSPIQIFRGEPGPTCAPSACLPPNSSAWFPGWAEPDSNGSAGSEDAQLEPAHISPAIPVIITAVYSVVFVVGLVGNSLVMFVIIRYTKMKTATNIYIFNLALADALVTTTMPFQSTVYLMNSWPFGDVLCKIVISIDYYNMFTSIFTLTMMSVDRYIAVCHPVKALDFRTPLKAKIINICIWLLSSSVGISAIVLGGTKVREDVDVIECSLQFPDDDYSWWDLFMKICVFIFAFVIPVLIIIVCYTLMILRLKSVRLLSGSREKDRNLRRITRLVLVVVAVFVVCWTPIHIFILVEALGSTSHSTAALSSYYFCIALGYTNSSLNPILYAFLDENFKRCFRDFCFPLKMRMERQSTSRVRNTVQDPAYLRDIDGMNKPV
Sequence of DOP (P41143 whole entry): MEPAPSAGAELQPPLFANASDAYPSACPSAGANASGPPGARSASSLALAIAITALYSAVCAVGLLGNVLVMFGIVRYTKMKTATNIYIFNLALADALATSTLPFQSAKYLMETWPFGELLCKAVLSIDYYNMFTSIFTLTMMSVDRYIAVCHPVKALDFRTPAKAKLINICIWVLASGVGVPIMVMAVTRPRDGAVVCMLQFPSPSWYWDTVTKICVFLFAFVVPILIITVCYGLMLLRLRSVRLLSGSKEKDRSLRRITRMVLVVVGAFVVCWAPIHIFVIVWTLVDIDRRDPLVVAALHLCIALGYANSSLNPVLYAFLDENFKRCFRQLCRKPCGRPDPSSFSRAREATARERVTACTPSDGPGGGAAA

For the compound `CC1(C)CNC(=O)C[C@H](NC(=O)[C@@H](N)Cc2ccc(O)cc2)C(=O)NCC(=O)N[C@@H](Cc2ccccc2)C(=O)NC(C(=O)N[C@@H](CCCNC(=N)N)C(=O)N[C@@H](CCCNC(=N)N)C(N)=O)CSS1` (stereo partly drawn) [CP2, c(Tyr-Asp-Gly-Phe-SSa-Arg-Arg)] (H-YDGF[ξC]RR-NH2; linker 2-5 via NHCH2CMe2S; N-terminus assumed), the 50% effective concentration (EC50) at KOP was 320 nM; on MOP, 2330 nM; at DOP, 1380 nM. The half-life in series [1] and in series [2] was under 0.01 min each time.
As for `CC(C)C[C@H](NC(=O)[C@H](Cc1ccc(Cl)cc1)NC(=O)CN(C)C(=O)[C@@H](N)Cc1ccc(O)cc1)C(=O)N[C@@H](CCCNC(=N)N)C(=O)N[C@H](CCCNC(=N)N)C(=O)N[C@H]1CSSC(C)(C)CNC(=O)C[C@@H](C(N)=O)NC1=O` [CP9, c(Tyr-Sar-(p-Cl-Phe)-Leu-Arg-D(Arg)-SSa-Asp)] (H-Y[Sar][Phe(4-Cl)]LR[dR]CD-NH2; linker 7-8 via X1), the 50% effective concentration (EC50) at KOP was 1.8 nM; at MOP, over 10000 nM; on DOP, over 10000 nM. Further, the “Degradation in cAMP assay buffer” value in “Stability in cAMP buffer” is recorded as “no degradation”. For the same compound, the half-life in series [1] was determined as 85.5 min; in series [2] it was 49.8 min.
As to `CC(C)C[C@H](NC(=O)[C@H](Cc1ccc([N+](=O)[O-])cc1)NC(=O)CN(C)C(=O)[C@@H](N)Cc1ccc(O)cc1)C(=O)N[C@@H](CCCNC(=N)N)C(=O)N[C@H](CCCNC(=N)N)C(=O)N[C@@H]1CSSC(C)(C)CNC(=O)C[C@H](C(=O)N[C@@H](CCCCN)C(N)=O)NC(=O)[C@H](CCCNC(=N)N)NC1=O` [CP13, c(Tyr-Sar(p-NO2-Phe)-Leu-Arg-D(Arg)-SSa-Arg-D(Asp)-Lys] (H-Y[Sar][Phe(4-NO2)]LR[dR][dC]R[dD]K-NH2; linker 7-9 via X1), the EC50 on KOP was 16 nM; on MOP, over 10000 nM. For the same compound, the “Degradation in cAMP assay buffer” value in “Stability in cAMP buffer” is on record as “no degradation”. Besides, the half-life at 100 uM in series [1] was determined as 63.3 min; in series [2], 1410 min. For the same compound, the Degradation in trypsin result in series [2] is “no sign of degradation”.
As for `CC(C)C[C@H](NC(=O)[C@H](Cc1ccc([N+](=O)[O-])cc1)NC(=O)CN(C)C(=O)[C@@H](N)Cc1ccc(O)cc1)C(=O)N[C@@H](CCCNC(=N)N)C(=O)N(C)[C@@H](CCCNC(=N)N)C(=O)N[C@@H]1CC(=O)NCC(C)(C)SSC[C@H](C(=O)N[C@H](CCCCN)C(N)=O)NC(=O)[C@@H](CCCNC(=N)N)NC1=O` [CP14, c(Tyr-Sar-(p-NO2-Phe)-Leu-Arg-NMA-D(Asp)-D(Arg)-SSa-D(Lys))] (H-Y[Sar][Phe(4-NO2)]LR[NMeR][dD][dR][dC][dK]-NH2; linker 7-9 via NHCH2CMe2S), the concentration giving a half-maximal response (EC50) at KOP was 4.4 nM; at MOP it was over 10000 nM. For the same compound, the “Degradation in cAMP assay buffer” value in the series “Stability in cAMP buffer” is reported as “no degradation”. Further, the half-life at 100 uM stood at 70.8 min in series [1] and 2320 min in series [2]. Further, the Degradation in trypsin result in series [2] is recorded as “no sign of degradation”.
With Tyr-Gly-Gly-Phe-Leu-Arg-Arg, the fragment found entry with trypsin is reported as “DYN A (1-6), 15 min”.
Turning to “Tyr-Gly-Gly-Phe-Leu-Arg-Arg-Ile-Arg-Pro-Lys”, in the series with trypsin, the fragment found entry was “DYN A (1-7), first_seen, initial time point samples; also recorded: DYN A (1-6), first_seen, initial time point samples” and the not cleaved entry is “DYN 1-9 was not observed upon trypsin digestion”.
For the compound “c(Tyr-Gly-Gly-Phe-D(Asp)-Arg-SSa-Ile-Arg-Pro-Lys)”, the not cleaved result in the series on trypsin is reported as “Stable up to 6 h; more than 90% remained after 360 minutes”.
For “c(Tyr-Sar(p-NO2-Phe)-Leu-Arg-D(Arg)-SSa-Arg-D(Asp)-Lys”, the not cleaved result in series [3] is recorded as “no sign of degradation over the 120 minute assay”.
On to “c(Tyr-Sar-(p-NO2-Phe)-Leu-Arg-NMA-D(Asp)-D(Arg)-SSa-D(Lys))”, for which, in series [3], the not cleaved entry was “no sign of degradation over the 120 minute assay”.

As a reminder, the EC50 is the concentration giving half of the maximal effect. Low readings indicate higher potency in that assay, high ones lower potency in that assay.
